Test results published in patent US20040157837A1, “Combinations for the treatment of fungal infections” (priority 2002, published 2004).

Tests used:
[1] = test system: Candida albicans Strain 1; test: Anti-proliferation assay, Candida albicans Strain 1; assay type: cell-based; details: STRAIN1, Amphotericin B 0.00 μM (r16), read-out: Percent inhibition of proliferation
Text: (§1) Using the method described below, we tested the ability of the combination of various concentrations of amphotericin B plus disulfiram to inhibit the proliferation of numerous yeast strains using particle density as an indicator of cell number.
(§2) Two clinical Candida albicans isolates (one triazole-resistant strain and one triazole-susceptible strain) were obtained from the culture collection if the Seattle Biomedical Research Institute (Seattle, Wash.). Additional fungal strains were obtained from the American Type Culture Collection triazole-resistant C. albicans: ATCC MYA-573, C. glabrata: ATCC 90030. Yeast cultures were stored in 15% glycerol at −70° C. Isolates were cultured in growth medium (RPMI 1640; 2% glucose without NaHCO3 and phenol red, buffered with 0.165 M MOPS to pH 7.0) at 35° C. for 24 hours prior to in vitro susceptibility testing. All media reagents were purchased from Sigma Chemical Co. (St. Louis, Mo.).
(§3) The following compounds were used: disulfiram and amphotericin B (both from Sigma Chemical Co.). In the anti-proliferation experiments, Gentian Violet was used as a positive control for antifungal activity. Stock solutions of each compound were prepared in DMSO and stored at −20° C. Prior to use, stock solutions were diluted in RPMI to produce 10× solutions. 10× disulfiram (0-7 μL) and 10× amphotericin B (0-7 μL) were then plated in 40 μL of in 384 well microtiter plates to form a matrix of compound combinations.
(§4) All antifungal susceptibility testing was performed according to document M-27A as published by the National Committee for Clinical Laboratory Standards (Reference Method for Broth Dilution Antifungal Susceptibility Testing of Yeasts (1997), Wayne, Pa.). Briefly, yeast inocula from overnight cultures were standardized to a turbidity equivalent to a 0.5 McFarland Standard using a spectrophotometer at 530 nm, giving rise to a stock solution of 1×10^6 cells/mL. Each yeast suspension was further diluted in growth medium to yield a final inoculum concentration of approximately 4×10^3 cells/mL. Forty microlitres of the inoculum were used to inoculate each well, resulting in a final concentration of 2×10^3 cells/mL. Drug-free controls were included on each plate. Plates were incubated for 16 hours at 32° C. The amount of cell growth was determined by particle density as read on a Nephelometer (BMG Lab Technologies; Durham, N.C.).

Candida glabrata = test: Anti-proliferation assay, Candida glabrata; assay type: cell-based; details: Nakaseomyces glabratus, Amphotericin B 0.00 μM (r15), read-out: Percent inhibition of proliferation
Text: as §1, §2, §3, §4

[2] = cited from earlier work
Aspergillus fumigatus = test: Anti-proliferation assay, Aspergillus fumigatus; assay type: cell-based; details: Amphotericin B 0.00 μM, read-out: Percent inhibition of proliferation
Procedure: as §1
The Aspergillus fumigatus strain was obtained from the American Type Culture Collection (ATCC 46645). Aspergillus cultures were stored in 15% glycerol at −70° C. Isolates were cultured on Sabouraud glucose (SAB) agar plates at 37° C. for 5 to 7 days. Condidia were collected by addung 5 to 10 mL of sterile saline containing 0.05% Tween 20 to the plates and loosening condidia with a swab. Using a pipette, condidia were collected suspension and placed in a sterile bottle. This was repeated for all plates. After harvesting the suspension was filtered through gauze into a clean, sterile bottle. The turbidity of the supernatants was measured spectrophometrically at 530 nm and the transmission adjusted to 80-82% with PBS (with 0.05% Tween 20) to yield an initial suspension of 1×10^6 CFU/mL.
as §3, §4

Candida albicans MYA 573 = test: Anti-proliferation assay, Candida albicans MYA 573; assay type: cell-based; details: MYA573, Amphotericin B 0.00 μM (r16), read-out: Percent inhibition of proliferation
Text: as §1, §2, §3, §4

[3] = test system: Candida albicans Strain 17; test: Anti-proliferation assay, Candida albicans Strain 17; assay type: cell-based; details: STRAIN17, Amphotericin B 0.00 μM (r16), read-out: Percent inhibition of proliferation
Text: as §1, §2, §3, §4

**Q.** Which results are given for `CCN(CC)C(=S)SSC(=S)N(CC)CC` [Disulfiram, bis(diethylthiocarbamoyl) disulfide]?
**A.** inhibition at 0.01 µM ([1]; Disulfiram 0.01 μM): 5.3%; inhibition at 0.02 µM ([1]; Disulfiram 0.02 μM): 9.08%; inhibition at 0.04 µM ([1]; Disulfiram 0.04 μM): 10.1%; inhibition at 0.07 µM ([1]; Disulfiram 0.07 μM): 11.7%; inhibition at 0.14 µM ([1]; Disulfiram 0.14 μM): 18.2%; inhibition at 0.28 µM ([1]; Disulfiram 0.28 μM): 26.9%; inhibition at 0.56 µM ([1]; Disulfiram 0.56 μM): 54.5%; inhibition at 1.12 µM ([1]; Disulfiram 1.12 μM): 89.6%; inhibition at 0.01 µM (Candida glabrata; Disulfiram 0.01 μM): -10.4%; inhibition at 0.02 µM (Candida glabrata; Disulfiram 0.02 μM): -1.67%; inhibition at 0.04 µM (Candida glabrata; Disulfiram 0.04 μM): 1.52%; inhibition at 0.07 µM (Candida glabrata; Disulfiram 0.07 μM): 1.92%; inhibition at 0.14 µM (Candida glabrata; Disulfiram 0.14 μM): 2.12%; inhibition at 0.28 µM (Candida glabrata; Disulfiram 0.28 μM): 19.6%; inhibition at 0.56 µM (Candida glabrata; Disulfiram 0.56 μM): 61.3%; inhibition at 1.12 µM (Candida glabrata; Disulfiram 1.12 μM): 88.7%; soluble in alcohol ([2]; alcohol): about 3.8 mg/100 mL; soluble in water ([2]; water): about 20 mg/100 mL; inhibition at 0.04 µM (Aspergillus fumigatus; Disulfiram 0.04 μM): 0.66%; inhibition at 0.08 µM (Aspergillus fumigatus; Disulfiram 0.08 μM): -2.93%; inhibition at 0.16 µM (Aspergillus fumigatus; Disulfiram 0.16 μM): -2.21%; inhibition at 0.31 µM (Aspergillus fumigatus; Disulfiram 0.31 μM): -13.1%; inhibition at 0.63 µM (Aspergillus fumigatus; Disulfiram 0.63 μM): -0.75%; inhibition at 1.25 µM (Aspergillus fumigatus; Disulfiram 1.25 μM): 6.07%; inhibition at […] (Aspergillus fumigatus; Disulfiram 2.50 μM): 14.9%; inhibition at 5 µM (Aspergillus fumigatus; Disulfiram 5.00 μM): 31.7%; inhibition at 10 µM (Aspergillus fumigatus; Disulfiram 10.00 μM): 37.2%; inhibition at 0.01 µM (Candida albicans MYA 573; Disulfiram 0.01 μM): -5.62%; inhibition at 0.02 µM (Candida albicans MYA 573; Disulfiram 0.02 μM): 1.7%; inhibition at 0.04 µM (Candida albicans MYA 573; Disulfiram 0.04 μM): 10.3%; inhibition at 0.07 µM (Candida albicans MYA 573; Disulfiram 0.07 μM): 25.2%; inhibition at 0.14 µM (Candida albicans MYA 573; Disulfiram 0.14 μM): 39.3%; inhibition at 0.28 µM (Candida albicans MYA 573; Disulfiram 0.28 μM): 55.6%; inhibition at 0.56 µM (Candida albicans MYA 573; Disulfiram 0.56 μM): 78.3%; inhibition at 1.12 µM (Candida albicans MYA 573; Disulfiram 1.12 μM): 95%; inhibition at 0.01 µM ([3]; Disulfiram 0.01 μM): -3.64%; inhibition at 0.02 µM ([3]; Disulfiram 0.02 μM): -0.03%; inhibition at 0.04 µM ([3]; Disulfiram 0.04 μM): -0.15%; inhibition at 0.07 µM ([3]; Disulfiram 0.07 μM): 2.27%; inhibition at 0.14 µM ([3]; Disulfiram 0.14 μM): 2.66%; inhibition at 0.28 µM ([3]; Disulfiram 0.28 μM): 22.9%; inhibition at 0.56 µM ([3]; Disulfiram 0.56 μM): 30.5%; inhibition at 1.12 µM ([3]; Disulfiram 1.12 μM): 53.4%
